Values of other authors as cited in US7803786B2, “Pharmaceutical co-crystal compositions and related methods of use” (Transform Pharmaceuticals, Inc., priority 2004, dated 2010).

Key:
[1] = co-crystal former; multiple values for multiple functionalities
[2] = Cambridge Structural Database (piracetam), Merck Index (gentisic acid)

Structure (SMILES) | pKa Values [1] | known polymorphism of the free form [2]
O=C(O)C(O)C(O)C(O)C(O)CO (stereo not drawn) [Gluconic acid] | 3.76 | 
O=C(O)c1cc(O)ccc1O [gentisic acid] |  | dimorphic
NC(=O)CN1CCCC1=O [piracetam] |  | Three polymorphs
